In patent US20140011822A1, “METHODS AND MATERIALS FOR REDUCING VENOUS STENOSIS FORMATION OF AN ARTERIOVENOUS FISTULA OR GRAFT” (priority 2011, published 2014):

How the values were obtained:
α-SMA [1] = assay: α-SMA staining of outflow vein, simvastatin; format: in vivo, mice; settings: for average reduction of α-SMA density: vs control
Description: (§1) Multiple serial four-micrometer sections were stained and analyzed. Cellular proliferation was determined by staining for Ki-67 on sections removed from the outflow vein for simvastatin treated vessels or control groups. Smooth muscle density (α-SMA) or proliferation index (Ki-67) was determined by staining on sections removed from the outflow vein by performing quantification at the different time points. Immunohistochemistry for Ki-67 and α-SMA was performed on paraffin-embedded sections from the outflow vein after transfection with either simvastatin or controls using the Vectastain Elite ABC system (Vector Laboratories, Burlingame, Calif., USA). The following antibodies were used: mouse monoclonal antibody Ki-67 (DAKO, Carpentaria, Calif.; 1:400) or rabbit polyclonal antibody to mouse for α-SMA (Abcam, Cambridge, Mass.; 1:400).
(§2) Morphometric analysis was performed as described elsewhere (Misra et al., Kidney Int., 68:2890-2900 (2005); and Misra et al., Am. J. Physiol. Heart Circ. Physiol., 294:H2219-2230 (2008)). Briefly, the outflow vein was sectioned into multiple contiguous 4-μm paraffin embedded sections. Typically, 2 to 3 sections per animal for each group (simvastatin and controls) and time point (day 14 and day 28) were photographed and then quantified using KS 400 (Carl Zeiss, Inc., Thornwood, N.Y.) semiquantitative program.

HIF-1α = assay: RT-PCR for HIF-1α at outflow vein, simvastatin; format: in vivo, mice; settings: for average reduction of HIF-1α gene expression: vs control
Description: (§3) Animals were housed at 22° C. temperature, 41% relative humidity, and 12-/12-hour light/dark cycles. Animals were allowed access to water and food ad libitum. […] Sixty-eight male C57BL/6 mice (Jackson Laboratories, Bar Harbor, Me.) weighing 25-30 grams were used for the present study (FIG. 18). Chronic kidney disease was created by surgical removal of the right kidney accompanied by ligation of the arterial blood supply to the upper pole of the left kidney as described elsewhere (Misra et al., J. Vasc. Interv. Radiol., 21:1255-1261 (2010); see, also, FIG. 18A). Three weeks after nephrectomy, the animals were started on simvastatin (40 mg/kg administered i.p. three times per week) or PBS (equal amount of volume used for simvastatin i.p. controls). Simvastatin was prepared as described elsewhere (Wilson et al., Arterioscler Thromb. Vasc. Biol., 21:122-128 (2001)). A week later, an AVF was created by connecting the right carotid artery to the ipsilateral jugular vein (FIG. 18B; see, also, Misra et al., J. Vasc. Interv. Radiol., 21:1255-1261 (2010) and Yang et al., J. Vasc. Interv. Radiol., 20:946-950 (2009)). Animals were sacrificed at day 7, day 14, and day 28 following AVF placement for real time polymerase chain reaction (RT-PCR) and histomorphometric analyses (FIG. 18C). Serum BUN and creatinine were measured by removing blood from the tail vein at baseline (before nephrectomy), at AVF creation, and at the time of sacrifice. […] These animals were started on simvastatin (40 mg/kg i.p.) or PBS (equal amount of volume i.p.) every other day one week before AVF placement and then sacrificed four weeks after fistula placement for histomorphometric analysis.
(§4) The tissue was stored in RNA stabilizing reagent (Qiagen, Gaithersburg, Md.) as per the manufacturer's guidelines. To isolate the RNA, the specimens were homogenized, and total RNA was isolated using RNeasy mini kit (Qiagen) (Misra et al., J. Vasc. Interv. Radiol., 21:1255-1261 (2010); and Yang et al., J. Vasc. Interv. Radiol., 20:946-950 (2009)).
(§5) Expression for the gene of interest was determined using RT-PCR analysis as described elsewhere (Misra et al., J. Vasc. Interv. Radiol., 21:1255-1261 (2010)). Commercial PCR primers for the gene of interest were purchased from SA Biosciences (Frederick, Md.).

α-SMA [2] = assay: Confocal microscopy for α-SMA plus phalloidin in NIH 3T3 cells, simvastatin; format: cell-based
Description: (§6) One hundred thousand NIH 3T3 cells were treated with simvastatin (1 μM, 5 μM, or 10 μM) or controls and made hypoxic for 24 hours as described elsewhere (Misra et al., J. Vasc. Interv. Radiol., 21:896-902 (2010)).

[3] = test system: apoptosis at the outflow vein; assay: TUNEL staining of outflow vein, simvastatin; format: in vivo, mice; settings: for average increase of TUNEL staining: vs control
Description: TUNEL staining was performed on paraffin-embedded sections from the outflow vein after treatment with either simvastatin or controls as specified by the manufacturer (DeadEnd Colorimetric tunnel assay system, G7360, Promega, Madison, Wis.).
as §2

α-SMA [4] = assay: Western blot of α-SMA in NIH 3T3 cells, simvastatin; format: cell-based; settings: 10 μM, 24 hours of hypoxia, vs control
Description: as §6
The differentiation of fibroblasts to myofibroblasts was assessed by performing Western blot analysis for α-SMA. The cultured cells were processed for Western analysis using rabbit polyclonal antibody as described elsewhere (Misra et al., J. Vasc. Interv. Radiol., 19:252-259 (2008)).

MMP-9 = assay: RT-PCR for MMP-9 at outflow vein, simvastatin; format: in vivo, mice
Description: as §3, §4, §5

MMP-2 = assay: RT-PCR for MMP-2 in kidneys, simvastatin; format: in vivo, mice
Description: (§7) Animals were housed at 22° C. temperature, 41% relative humidity, and 12-/12-hour light/dark cycles. Animals were allowed access to water and food ad libitum. […] Sixty-eight male C57BL/6 mice (Jackson Laboratories, Bar Harbor, Me.) weighing 25-30 grams were used for the present study (FIG. 18). Chronic kidney disease was created by surgical removal of the right kidney accompanied by ligation of the arterial blood supply to the upper pole of the left kidney as described elsewhere (Misra et al., J. Vasc. Interv. Radiol., 21:1255-1261 (2010); see, also, FIG. 18A). Three weeks after nephrectomy, the animals were started on simvastatin (40 mg/kg administered i.p. three times per week) or PBS (equal amount of volume used for simvastatin i.p. controls). Simvastatin was prepared as described elsewhere (Wilson et al., Arterioscler Thromb. Vasc. Biol., 21:122-128 (2001)). […] Serum BUN and creatinine were measured by removing blood from the tail vein at baseline (before nephrectomy), at AVF creation, and at the time of sacrifice. […]
(§8) Expression for the gene of interest was determined using RT-PCR analysis as described elsewhere (Misra et al., J. Vasc. Interv. Radiol., 21:1255-1261 (2010)). […]

CTGF = assay: RT-PCR for CTGF at outflow vein, simvastatin; format: in vivo, mice; settings: day 14
Description: as §7, §8

Ki-67 = Ki-67 staining of outflow vein, simvastatin; format: in vivo, mice; settings: vs control
Description: as §1, §2

[5] = test system: hypoxic changes in the outflow vein; assay: Hypoxyprobe staining of outflow vein, simvastatin; format: in vivo, mice; settings: for average reduction of hypoxyprobe staining: vs control
Description: Hypoxic changes were assessed in the outflow vein of simvastatin treated vessels or control groups using Hypoxyprobe™-1 (EMD Millipore, Billerica, Mass.), a substituted derivative of pimonidazole hydrochloride. Hypoxyprobe™-1 upon activation forms stable covalent adducts with thiol groups of polypeptides and amino acids of hypoxic tissue. Mice were injected with 60 mg/kg Hypoxyprobe™-1 i.p. Thirty minutes following injection, mice were sacrificed, and outflow veins were dissected and fixed as specified for histological analysis. Four-micrometer thick paraffin embedded sections were stained with the anti-hypoxyprobe-1 Ab as per the manufacturer's directions.

## CCC(C)(C)C(=O)O[C@H]1C[C@@H](C)C=C2C=C[C@H](C)[C@H](CC[C@@H]3C[C@@H](O)CC(=O)O3)[C@H]21 [simvastatin]
α-SMA [1]; day 14
  average α-SMA density: 24±1.2
  average reduction of α-SMA density: 46%
α-SMA [1]; day 28
  average α-SMA density: 8.4±1.6
  average reduction of α-SMA density: 87%
α-SMA [1]; day 28 normal
  average α-SMA density: 28.4±1.6
  average reduction of α-SMA density: 32%
HIF-1α; day 7
  mean gene expression of HIF-1α: 0.45±0.12
  average reduction of HIF-1α gene expression: 54%
HIF-1α; day 14
  mean gene expression of HIF-1α: 0.34±0.04
  average reduction of HIF-1α gene expression: 54%
α-SMA [2]; 5 μM, 24 hours of hypoxia
  average reduction in α-SMA plus phalloidin staining: 52%
α-SMA [2]; 5 μM, 24 hours of normoxia
  average reduction in α-SMA plus phalloidin staining: 62%
α-SMA [2]; 10 μM, 24 hours of hypoxia
  average reduction in α-SMA plus phalloidin staining: 82%
α-SMA [2]; 10 μM, 24 hours of normoxia
  average reduction in α-SMA plus phalloidin staining: 94%
[3]; day 14
  average density of cells staining positive for TUNEL: 25.26±2.78
  average increase of TUNEL staining: 366%
[3]; day 28
  average density of cells staining positive for TUNEL: 30.17±1.8
  average increase of TUNEL staining: 561%
[3]; day 28 normal, vs control (P=0.0136)
  increase of TUNEL staining: 326%
α-SMA [4]
  Average reduction in α-SMA production (Western blot): 56%
MMP-9; day 7
  average gene expression of MMP-9: 0.19±0.03
MMP-9; day 7, vs control
  Average reduction of MMP-9 gene expression: 69%
MMP-9; day 14
  average gene expression of MMP-9: 0.37±0.02
MMP-9; day 14, vs control
  Average reduction of MMP-9 gene expression: 41%
MMP-2; day 28
  expression of MMP-2: 0.78±0.09
MMP-2; day 28, vs control
  Average reduction of MMP-2 expression: 42%
CTGF
  mean gene expression of CTGF: 0.29±0.05
CTGF; vs control
  average reduction of CTGF gene expression: 45%
Ki-67; day 14
  average reduction of Ki-67 density: 66%
Ki-67; day 28
  average reduction of Ki-67 density: 76%
Ki-67; day 28 normal
  average reduction of Ki-67 density: 77%
[5]; day 14
  average density of hypoxyprobe staining: 18.33±2.06
  average reduction of hypoxyprobe staining: 53%
[5]; day 28
  average density of hypoxyprobe staining: 13.01±4.62
  average reduction of hypoxyprobe staining: 70%
[5]; day 28 normal, vs control (P=0.0103)
  reduction of hypoxyprobe staining: 72%
